Paper PMC2994747, “Molecular Characterization of c-Abl/c-Src Kinase Inhibitors Targeted against Murine Tumour Progenitor Cells that Express Stem Cell Markers” (PLoS ONE, 2010)
Where two headings read alike, the source gives them in different places.

Experiments:
CaCo2 [1] = assay: Cell cycle analysis by flow cytometry; type: cell-based, human; conditions: IC50 concentration, 96 h
Procedure, shortened: (§1)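 Read-out is DNA content by flow cytometry using a commercial cell-cycle staining kit. Samples pass sequentially through kit solutions A (10 min, room temperature), B and C, the last step at 4°C protected from light, and are then held on ice in the dark.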

HepG2 [2] = assay: Cell cycle analysis by flow cytometry; type: cell-based, human; conditions: IC50 concentration, 96 h
Procedure, shortened: as §1

A549 [3] = assay: Cell cycle analysis by flow cytometry; type: cell-based, human; conditions: IC50 concentration, 96 h
Procedure, shortened: as §1

[4] = test system: human and murine cell lines; assay: Western blot, statements over human and murine cell lines; type: cell-based; conditions: IC50 concentration, 96 h
Description: (§2) For the Western Blot analysis, cells were rinsed and lysed as previously described. An amount of 25 µg protein was used for SDS-PAGE. Antibodies for c-Abl (sc-131), Actin (sc-1616), Cdc2-p34 (sc-8395), EPS15 (sc-1840), FAK (sc-558), c-Fos (sc-52), p38 (sc-7972), p53 (sc-6243) and STAT5 (sc-835x) were obtained from Santa Cruz (Santa Cruz Biotechnology, Heidelberg, Germany), while c-Src (2109) and phospho-Src Y416 (2101) were purchased from Cell Signaling (Cell Signaling Technology, Frankfurt a. M., Germany). The EGFR (06-847), phospho-EGFR Y992 (07-821) and phospho-EGFR Y1045 (04-284) stem from Upstate (Upstate, Schwalbach, Germany) and the hnRNP-K (A300-676A) from Bethyl Labs (Bethyl Laboratories, Montgomery, Texas, USA). Finally p73 (IMG-246) was supplied by Imgenex (Imgenex, Hamburg, Germany). Depending on the primary antibody the secondary antibodies were either horseradish peroxidase-conjugated anti-mouse (AP 160P), anti-rabbit (AP 132P) or anti-sheep (AP 147P) (Chemicon, Schwalbach, Germany).
(§3) Semi-quantitative analysis were carried out with Kodak 1D Image Analysis Software in reference to the vehicle treated control cells (see supplementary table S7).

CaCo2 [5] = assay: MTS cell viability assay; type: cell-based, human
Procedure, shortened: (§4)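 MTS read-out, A490 after 1 h reagent incubation. Exposure to dual kinase inhibitors vs 0.2% DMSO vehicle: 24 h or 96 h, triplicate wells. Culture: DMEM, 10% FCS, 4 mmol/l L-glutamine, 37°C/5% CO2.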

HepG2 [6] = assay: MTS cell viability assay; type: cell-based, human
Procedure, shortened: as §4

A549 [7] = assay: MTS cell viability assay; type: cell-based, human
Procedure, shortened: as §4

GammaD12 [8] = assay: Western blot, semi-quantitative protein expression; type: cell-based, mouse
Description: as §2, §3

GammaA3 [9] = assay: Western blot, semi-quantitative protein expression; type: cell-based, mouse
Description: as §2, §3

BetaD5 [10] = assay: MTS cell viability assay; type: cell-based, mouse
Procedure, shortened: as §4

GammaD12 [11] = assay: MTS cell viability assay; type: cell-based, mouse
Procedure, shortened: as §4

A2C12 = assay: MTS cell viability assay; type: cell-based, mouse
Procedure, shortened: as §4

GammaA3 [12] = assay: MTS cell viability assay; type: cell-based, mouse
Procedure, shortened: as §4

BetaD5 [13] = assay: Cell cycle analysis by flow cytometry; type: cell-based, mouse; conditions: IC50 concentration, 96 h
Procedure, shortened: as §1

GammaD12 [14] = assay: Cell cycle analysis by flow cytometry; type: cell-based, mouse; conditions: IC50 concentration, 96 h
Procedure, shortened: as §1

GammaA3 [15] = assay: Cell cycle analysis by flow cytometry; type: cell-based, mouse; conditions: IC50 concentration, 96 h
Procedure, shortened: as §1

[16] = 24 h, read-out: Calculated IC50 after single treatment for 24 h
[17] = 96 h, read-out: Calculated IC50 after daily treatment for 96 h
[18] = MTS, 24 h, read-out: Calculated IC50 after single treatment for 24 h
[19] = Mus musculus, 24 h, read-out: Calculated IC50 after single treatment for 24 h
[20] = Mus musculus, 96 h, read-out: Calculated IC50 after daily treatment for 96 h

## Fc1ccccc1CNc1ncnc2c1cnn2CC(Cl)c1ccc(Br)cc1 (stereo not shown) [Si162]
CaCo2 [1]
  Cells in G1 phase: 41.3%
  Cells in G2 phase: 12.3%
  Cells in S phase: 46.4%
HepG2 [2]
  Cells in G1 phase: 17.8%
  Cells in G2 phase: 63%
  Cells in S phase: 19.3%
A549 [3]
  Cells in G1 phase: 8.5%
  Cells in G2 phase: up to 72.3%
  Cells in S phase: 19.2%
A549 [3]; listed as Si 162
  Cells in G2 phase: 72.3%
[4]; lung cancer cell lines
  Repression of FAK protein: up to 50%
CaCo2 [5]; [16]
  IC50: > 100 µM
CaCo2 [5]; [17]
  IC50: 1.9 ± 0.2 µM
HepG2 [6]; [16]
  IC50: 34.7 ± 3.4 µM
HepG2 [6]; [17]
  IC50: 14.5 µM
A549 [7]; [16]
  IC50: 21.9 ± 2.7 µM
A549 [7]; [17]
  IC50: 5 µM
GammaD12 [8]
  Actin protein expression: 91
  EGFR Y992-p protein expression: 237
  EGFR Y1045-p protein expression: 309
  EGFR protein expression: 65
  EPS15 protein expression: 179
  FAK protein expression: 108
  STAT5 protein expression: 82
  c-Abl protein expression: 195
  c-Fos protein expression: 123
  c-Src Y416-p protein expression: 105
  c-Src protein expression: 56
  hnRNP-K protein expression: 85
  p38 protein expression: 43
  p53 protein expression: 154
GammaA3 [9]
  Actin protein expression: 83
  EGFR Y992-p protein expression: 77
  EGFR Y1045-p protein expression: 69
  EGFR protein expression: 1
  EPS15 protein expression: 90
  FAK protein expression: 111
  STAT5 protein expression: 46
  c-Abl protein expression: 1.79
  c-Src Y416-p protein expression: 205
  c-Src protein expression: 21
  hnRNP-K protein expression: 5
  p38 protein expression: 64
  p53 protein expression: 323
BetaD5 [10]; [16]
  IC50: 8.3 ± 1.2 µM
BetaD5 [10]; [17]
  IC50: 6.4 ± 0.5 µM
GammaD12 [11]; 96 h, read-out: IC50 (MTS) after treatment for 96 h
  IC50: 0.8 µM
GammaD12 [11]; [18]
  IC50: 11.6 ± 1.3 µM
A2C12; [16]
  IC50: 17.6 ± 1.2 µM
A2C12; [17]
  IC50: 2.1 ± 0.2 µM
GammaA3 [12]; [16]
  IC50: 13.1 ± 1.1 µM
GammaA3 [12]; [17]
  IC50: 6.4 ± 0.4 µM
BetaD5 [13]
  Cells in G1 phase: 22.8%
  Cells in G2 phase: 42.8%
  Cells in S phase: 34.5%
GammaD12 [14]
  Cells in G1 phase: 24.1%
  Cells in G2 phase: 12.4%
  Cells in S phase: 63.5%
GammaA3 [15]
  Cells in G1 phase: 40.3%
  Cells in G2 phase: 31.5%
  Cells in S phase: 28.1%

## Clc1cccc(Nc2nc(SC3CCCC3)nc3c2cnn3CC(Cl)c2ccccc2)c1 (stereo not shown) [Si135]
CaCo2 [1]
  Cells in G1 phase: 42.1%
  Cells in G2 phase: 12.1%
  Cells in S phase: 45.8%
HepG2 [2]
  Cells in G1 phase: 58%
  Cells in G2 phase: 9.5%
  Cells in S phase: 32.5%
A549 [3]
  Cells in G1 phase: 50.8%
  Cells in G2 phase: 8.6%
  Cells in S phase: 40.6%
[4]
  hnRNP-K protein level: remained equal
CaCo2 [5]; Homo sapiens, Caco-2, 24 h, read-out: Calculated IC50 after single treatment for 24 h
  IC50: 64.6 ± 10.3 µM
CaCo2 [5]; Homo sapiens, Caco-2, 96 h, read-out: Calculated IC50 after daily treatment for 96 h
  IC50: 2.1 ± 0.2 µM
HepG2 [6]; Homo sapiens, 24 h, read-out: Calculated IC50 after single treatment for 24 h
  IC50: 64.6 ± 10.3 µM
HepG2 [6]; Homo sapiens, 96 h, read-out: Calculated IC50 after daily treatment for 96 h
  IC50: 20.9 ± 1.8 µM
A549 [7]; Homo sapiens, A549, 24 h, 24 h, read-out: Calculated IC50 after single treatment for 24 h
  IC50: 26.1 ± 2.6 µM
A549 [7]; Homo sapiens, A549, 96 h, 96 h, read-out: Calculated IC50 after daily treatment for 96 h
  IC50: 2.7 µM
GammaD12 [8]
  Actin protein expression: 110
  EGFR Y992-p protein expression: 181
  EGFR Y1045-p protein expression: 132
  EGFR protein expression: 95
  EPS15 protein expression: 149
  FAK protein expression: 117
  STAT5 protein expression: 118
  c-Abl protein expression: 152
  c-Fos protein expression: 103
  c-Src Y416-p protein expression: 140
  c-Src protein expression: 89
  hnRNP-K protein expression: 75
  p38 protein expression: 18
  p53 protein expression: 108
GammaA3 [9]
  Actin protein expression: 101
  EGFR Y992-p protein expression: 70
  EGFR Y1045-p protein expression: 31
  EGFR protein expression: 25
  EPS15 protein expression: 102
  FAK protein expression: 104
  STAT5 protein expression: 80
  c-Abl protein expression: 65
  c-Fos protein expression: 112
  c-Src Y416-p protein expression: 216
  c-Src protein expression: 107
  hnRNP-K protein expression: 90
  p38 protein expression: 48
  p53 protein expression: 78
BetaD5 [10]; [19]
  IC50: 13 ± 2.2 µM
BetaD5 [10]; [20]
  IC50: 3.6 ± 0.2 µM
GammaD12 [11]; Mus musculus, MTS, 24 h, read-out: Calculated IC50 after single treatment for 24 h
  IC50: 14.7 ± 0.6 µM
GammaD12 [11]; Mus musculus, MTS, 96 h, read-out: Calculated IC50 after daily treatment for 96 h
  IC50: 3.5 ± 0.2 µM
A2C12; [19]
  IC50: 25.5 ± 3.8 µM
A2C12; [20]
  IC50: 4.1 ± 0.4 µM
GammaA3 [12]; [19]
  IC50: 10 ± 2.2 µM
GammaA3 [12]; [20]
  IC50: 3.8 ± 0.2 µM
BetaD5 [13]
  Cells in G1 phase: 73%
  Cells in G2 phase: 22.3%
  Cells in S phase: 4.7%
GammaD12 [14]
  Cells in G1 phase: 35.5%
  Cells in G2 phase: 12.5%
  Cells in S phase: 51.9%
GammaA3 [15]
  Cells in G1 phase: up to 75%
  Cells in G2 phase: 14.9%
  Cells in S phase: 10%
GammaA3 [15]; listed as Si 135
  Cells in G1 phase: 75.1%

## CSc1nc(NCCc2ccc(Cl)cc2)c2cnn(CC(Cl)c3ccccc3)c2n1 (stereo not shown) [Si57]
CaCo2 [1]
  Cells in G1 phase: 41.7%
  Cells in G2 phase: 18.1%
  Cells in S phase: 40.2%
HepG2 [2]
  Cells in G1 phase: 63.9%
  Cells in G2 phase: 8.1%
  Cells in S phase: 28%
A549 [3]
  Cells in G1 phase: 70.5%
  Cells in G2 phase: 5.5%
  Cells in S phase: 24%
[4]
  hnRNP-K protein level: remained equal
CaCo2 [5]; [16]
  IC50: 77.1 ± 7.5 µM
CaCo2 [5]; [17]
  IC50: 6.8 ± 1.5 µM
HepG2 [6]; [16]
  IC50: 77.2 ± 7.5 µM
HepG2 [6]; [17]
  IC50: 25.5 ± 4.8 µM
A549 [7]; [16]
  IC50: 43.4 ± 8 µM
A549 [7]; [17]
  IC50: 8.3 ± 0.4 µM
GammaD12 [8]
  Actin protein expression: 106
  EGFR Y992-p protein expression: 62
  EGFR Y1045-p protein expression: 96
  EGFR protein expression: 89
  EPS15 protein expression: 135
  FAK protein expression: 106
  STAT5 protein expression: 110
  c-Abl protein expression: 212
  c-Fos protein expression: 70
  c-Src Y416-p protein expression: 90
  c-Src protein expression: 103
  hnRNP-K protein expression: 100
  p38 protein expression: 29
  p53 protein expression: 58
GammaA3 [9]
  Actin protein expression: 105
  EGFR Y992-p protein expression: 90
  EGFR Y1045-p protein expression: 15
  EGFR protein expression: 39
  EPS15 protein expression: 102
  FAK protein expression: 101
  STAT5 protein expression: 93
  c-Abl protein expression: 62
  c-Fos protein expression: 79
  c-Src Y416-p protein expression: 256
  c-Src protein expression: 104
  hnRNP-K protein expression: 93
  p38 protein expression: 38
  p53 protein expression: 54
BetaD5 [10]; [16]
  IC50: 19.6 ± 1.5 µM
BetaD5 [10]; [17]
  IC50: 9.1 µM
GammaD12 [11]; [18]
  IC50: 14.6 ± 0.7 µM
GammaD12 [11]; MTS, 96 h, read-out: Calculated IC50 after daily treatment for 96 h
  IC50: 4.8 ± 0.6 µM
A2C12; [16]
  IC50: 24.8 ± 0.2 µM
A2C12; [17]
  IC50: 5.4 ± 0.3 µM
GammaA3 [12]; [16]
  IC50: 26.6 ± 4.2 µM
GammaA3 [12]; [17]
  IC50: 5.8 ± 0.4 µM
BetaD5 [13]
  Cells in G1 phase: 52.5%
  Cells in G2 phase: 32.3%
  Cells in S phase: 15.4%
GammaD12 [14]
  Cells in G1 phase: 33%
  Cells in G2 phase: 6%
  Cells in S phase: 61.1%
GammaA3 [15]
  Cells in G1 phase: 59.6%
  Cells in G2 phase: 18%
  Cells in S phase: 22.4%
